Active and inactive are the calls of the source.
What was measured:
[1] = molecular target: 26S proteasome non-ATPase regulatory subunit 14 (Homo sapiens, UniProt O00487); test: inhibition of proteasome subunit RPN11 – biochemical, fluorescence polarization, uHTS hits, confirmation (AID 602368); type: functional
[2] = molecular target: 72 kDa type IV collagenase (Homo sapiens, UniProt P08253); test: Dose Response validation of uHTS RPN11 inhibitor hits using a MMP-2 Fluorescence assay.; type: functional
Cysteine protease ATG4B = molecular target: T1, Cysteine protease ATG4B (Homo sapiens, UniProt Q9Y4P1); type: functional;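 note: Fluorescence-based dose-response confirmation assay measuring inhibition of ATG4B activity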
T1 sequence (Q9Y4P1 whole entry): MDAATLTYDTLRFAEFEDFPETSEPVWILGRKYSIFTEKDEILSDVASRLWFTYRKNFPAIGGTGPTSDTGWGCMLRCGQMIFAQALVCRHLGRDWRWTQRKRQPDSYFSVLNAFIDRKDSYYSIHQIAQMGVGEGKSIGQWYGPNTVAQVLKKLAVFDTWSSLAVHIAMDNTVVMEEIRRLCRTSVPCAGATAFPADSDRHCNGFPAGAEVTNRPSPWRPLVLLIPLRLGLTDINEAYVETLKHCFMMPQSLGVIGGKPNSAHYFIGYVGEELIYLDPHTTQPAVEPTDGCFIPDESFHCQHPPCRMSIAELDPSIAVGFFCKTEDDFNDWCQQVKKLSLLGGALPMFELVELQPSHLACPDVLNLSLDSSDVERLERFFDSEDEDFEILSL

Phospholipase A2 = Phospholipase A2 (Homo sapiens, UniProt P04054); type: functional;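 note: confirmatory dose-response counterscreen on phospholipase A2, testing hits that came from an ultra-high-throughput screen for ATG4B inhibitors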
[3] = molecular target: T2, Small ubiquitin-related modifier 1 (Homo sapiens, UniProt P63165); test: SUMO1 protein interaction blockers, potency – biochemical, fluorescence polarization, uHTS hits, dose response (AID 624382); type: functional; details: read-out: IC50_Mean
[4] = molecular target: T3, Zinc finger protein mex-5 (Caenorhabditis elegans, UniProt Q9XUB2); test: potency of MEX-5 RNA-binding blockers – biochemical, C. elegans, fluorescence polarization, dose response (AID 1960)
T3 sequence (Q9XUB2 whole entry): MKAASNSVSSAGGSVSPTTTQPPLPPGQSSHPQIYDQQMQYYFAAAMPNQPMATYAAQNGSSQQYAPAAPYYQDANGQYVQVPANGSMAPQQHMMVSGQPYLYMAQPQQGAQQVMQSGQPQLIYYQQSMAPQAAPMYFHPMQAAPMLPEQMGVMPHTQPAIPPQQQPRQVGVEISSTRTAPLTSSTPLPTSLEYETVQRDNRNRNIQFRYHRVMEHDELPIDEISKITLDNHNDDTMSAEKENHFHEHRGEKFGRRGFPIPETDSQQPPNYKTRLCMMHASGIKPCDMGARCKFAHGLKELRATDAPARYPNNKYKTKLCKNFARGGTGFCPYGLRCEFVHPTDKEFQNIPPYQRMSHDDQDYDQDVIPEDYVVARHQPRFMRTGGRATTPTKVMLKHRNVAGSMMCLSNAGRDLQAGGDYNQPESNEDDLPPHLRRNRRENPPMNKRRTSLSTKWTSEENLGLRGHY

Prothrombin = Prothrombin (Bos taurus, UniProt P00735); test: thrombin protease inhibitors – biochemical, fluorescence polarization, uHTS hits, dose response (AID 602369); type: functional
Large T antigen = Large T antigen (Simian virus 40, UniProt P03070); type: functional, Betapolyomavirus macacae;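 note: Confirmatory-stage PubChem screen for compounds that inhibit SV40 T antigen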
[5] = molecular target: T2, Small ubiquitin-related modifier 1; test: SUMO1 protein-protein binding blockers, potency – biochemical, FRET, dose response (AID 624383); type: functional; details: read-out: IC50_Mean
[6] = molecular target: T4, RNA-binding protein pos-1 (Caenorhabditis elegans, UniProt G5EF15); test: disruptors of C. elegans POS-1 RNA interaction – biochemical, fluorescence polarization, dose response (AID 1964);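 note: purified POS-1 fused to maltose binding protein made in E. coli; potency of compounds blocking POS-1 binding to fluorescent RNA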
T4 sequence (G5EF15 whole entry): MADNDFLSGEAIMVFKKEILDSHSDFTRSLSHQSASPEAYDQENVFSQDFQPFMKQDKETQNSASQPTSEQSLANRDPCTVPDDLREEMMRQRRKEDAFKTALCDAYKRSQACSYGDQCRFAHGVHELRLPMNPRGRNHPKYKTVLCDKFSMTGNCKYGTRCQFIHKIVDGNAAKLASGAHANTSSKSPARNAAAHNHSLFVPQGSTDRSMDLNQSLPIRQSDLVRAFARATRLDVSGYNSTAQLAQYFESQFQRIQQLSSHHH

ORF 73 = molecular target: T5, ORF 73 (Human herpesvirus 8, UniProt O40947); test: KSHV LANA DNA-binding disruption – biochemical, fluorescence polarization, cherry-picked samples, dose response (AID 504725); parameters: species or system Human gammaherpesvirus 8;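 note: fluorescence polarization of a labeled DNA duplex reporting LANA DNA binding; potency is for inhibitors that block LANA binding to the DNA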
T5 sequence (O40947 whole entry): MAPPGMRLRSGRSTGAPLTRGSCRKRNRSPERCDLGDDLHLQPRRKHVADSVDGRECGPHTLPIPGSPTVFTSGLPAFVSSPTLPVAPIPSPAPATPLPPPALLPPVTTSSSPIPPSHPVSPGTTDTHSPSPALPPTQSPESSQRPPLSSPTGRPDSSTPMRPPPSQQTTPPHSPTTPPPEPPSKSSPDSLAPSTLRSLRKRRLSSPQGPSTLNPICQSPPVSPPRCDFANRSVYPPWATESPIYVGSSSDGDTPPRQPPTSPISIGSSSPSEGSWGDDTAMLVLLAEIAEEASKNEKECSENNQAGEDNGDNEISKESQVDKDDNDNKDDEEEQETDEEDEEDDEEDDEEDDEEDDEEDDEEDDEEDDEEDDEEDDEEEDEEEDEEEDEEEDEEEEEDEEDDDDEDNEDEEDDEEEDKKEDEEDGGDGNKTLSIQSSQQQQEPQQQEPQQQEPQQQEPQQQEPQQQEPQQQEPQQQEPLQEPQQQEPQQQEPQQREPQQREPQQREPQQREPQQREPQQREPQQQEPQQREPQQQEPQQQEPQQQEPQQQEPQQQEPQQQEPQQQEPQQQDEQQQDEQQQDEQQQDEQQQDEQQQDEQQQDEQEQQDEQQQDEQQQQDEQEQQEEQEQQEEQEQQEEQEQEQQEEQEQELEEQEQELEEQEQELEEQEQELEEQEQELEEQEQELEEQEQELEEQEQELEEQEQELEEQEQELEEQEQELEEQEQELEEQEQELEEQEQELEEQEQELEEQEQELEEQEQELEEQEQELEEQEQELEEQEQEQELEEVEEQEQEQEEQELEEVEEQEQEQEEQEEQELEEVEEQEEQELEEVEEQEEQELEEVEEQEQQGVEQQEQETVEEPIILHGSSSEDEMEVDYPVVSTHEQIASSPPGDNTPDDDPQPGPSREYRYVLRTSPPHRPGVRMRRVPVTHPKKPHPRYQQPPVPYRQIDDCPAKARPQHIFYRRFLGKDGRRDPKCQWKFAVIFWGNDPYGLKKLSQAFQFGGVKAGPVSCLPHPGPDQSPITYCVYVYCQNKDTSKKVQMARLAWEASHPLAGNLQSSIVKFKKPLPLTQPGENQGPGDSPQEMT

Genome polyprotein = Genome polyprotein (dengue virus type 2, UniProt P29990); test: flavivirus cap methylation enzyme inhibition – biochemical, confirmation dose response, primary screen (AID 588689); type: functional
[7] = cAMP pathway inhibition in counterscreen cell line – TR-FRET cAMP detection, counter-screen for MC4R biased antagonist project, dose response (AID 602305); type: functional, cell-based;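 note: U2OS cells stimulated with forskolin near its EC80 as the cAMP inducer; potency is for inhibition of forskolin-stimulated cAMP signaling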
Melanocortin receptor 4 = Melanocortin receptor 4 (Homo sapiens, UniProt P32245); test: inhibitors of MC4R cAMP signaling – cell-based, TR-FRET, biased antagonists, dose response (AID 602298); type: functional;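 note: antagonist potency against agonist-stimulated cAMP production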
[8] = molecular target: T6, Sentrin-specific protease 1 (Homo sapiens, UniProt Q9P0U3); test: Dose response confirmation of small molecule inhibitors of the catalytic domain of the SUMO protease, SENP1 in a FRET assay.; type: functional; details: read-out: IC50_Mean
[9] = molecular target: T6, Sentrin-specific protease 1; test: SENP1 catalytic domain blockers, concentration series – biochemical, kinetic FRET, dose response (AID 651697); type: functional; details: read-out: IC50_Mean
[10] = molecular target: DNA (cytosine-5)-methyltransferase 1 (Homo sapiens, UniProt P26358); test: inhibition of DNA methylation by DNMT1 – biochemical, fluorescent molecular beacon, confirmation (AID 602386); type: functional
[11] = molecular target: Tyrosine-protein kinase JAK3 (Homo sapiens, UniProt P52333); type: functional
Aurora kinase A = Aurora kinase A (Homo sapiens, UniProt O14965); type: functional;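 note: value from the Navigating the Kinome kinase panel profiling, panel entry STK6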
[12] = molecular target: ALK tyrosine kinase receptor (Homo sapiens, UniProt Q9UM73); type: functional;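 note: ALK tested as one member of a kinase panel screen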
[13] = molecular target: Mitochondrial peptide methionine sulfoxide reductase (Bos taurus, UniProt P54149); type: functional;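 note: absorbance read-out, biochemical high-throughput dose-response screen for MsrA inhibitors, confirmatory; recombinant bovine MsrA coupled to E. coli TrxB with NADPH and selenocystamine; potency is for inhibitors of MsrA activity on DMSO substrate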
[14] = molecular target: Dual specificity protein kinase CLK2 (Homo sapiens, UniProt P49760); type: functional
[15] = molecular target: G protein-coupled receptor kinase 5 (Homo sapiens, UniProt P34947); test: Navigating the Kinome. Panel member name: GPRK5; type: functional
[16] = molecular target: T7, ATP-dependent translocase ABCB1 (Homo sapiens, UniProt P08183); test: P-gp JC-1 efflux blockade concentration-response – Jurkat-DNR cells, flow cytometry, set 2, dose response (AID 504569); type: functional; details: read-out: EC50_MICROM_;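 note: potency of pump inhibitors that raise cellular JC-1 green fluorescence up to the nicardipine level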
[17] = molecular target: T7, ATP-dependent translocase ABCB1; test: inhibition of BCRP-mediated JC-1 efflux – Ig-MXP3 cells, flow cytometry, set 2, dose response (AID 504566); type: functional; details: read-out: EC50_MICROM_;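 note: flow cytometry median green fluorescence of retained JC-1 dye; potency of efflux pump inhibition measured as rising substrate retention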
[18] = molecular target: Hepatocyte nuclear factor 4-alpha (Homo sapiens, UniProt P41235); type: functional, cell-based;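 note: biochemical luminescence-based dose-response counterscreen measuring inhibition of HNF4 dimerization, run alongside a screen for blockers of ABHD5–perilipin-5 interaction; split luciferase complementation of HNF4 fusion proteins in cell lysate measuring dimerization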
Paired box protein Pax-8 = Paired box protein Pax-8 (Homo sapiens, UniProt Q06710); test: PAX8 transcriptional activity inhibition in RMG-I – RMG-I cells, luciferase, cherry-pick, dose response (AID 687027); type: functional, cell-based;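 note: luciferase reporter driven by Pax8 target thyroperoxidase promoter measured by SteadyGlo luminescence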

T2 sequence (P63165 whole entry): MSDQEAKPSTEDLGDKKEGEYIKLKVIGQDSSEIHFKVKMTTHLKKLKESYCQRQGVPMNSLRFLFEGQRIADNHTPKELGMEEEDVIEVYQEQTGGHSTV
T6 sequence (Q9P0U3 whole entry, the tested form may be a part): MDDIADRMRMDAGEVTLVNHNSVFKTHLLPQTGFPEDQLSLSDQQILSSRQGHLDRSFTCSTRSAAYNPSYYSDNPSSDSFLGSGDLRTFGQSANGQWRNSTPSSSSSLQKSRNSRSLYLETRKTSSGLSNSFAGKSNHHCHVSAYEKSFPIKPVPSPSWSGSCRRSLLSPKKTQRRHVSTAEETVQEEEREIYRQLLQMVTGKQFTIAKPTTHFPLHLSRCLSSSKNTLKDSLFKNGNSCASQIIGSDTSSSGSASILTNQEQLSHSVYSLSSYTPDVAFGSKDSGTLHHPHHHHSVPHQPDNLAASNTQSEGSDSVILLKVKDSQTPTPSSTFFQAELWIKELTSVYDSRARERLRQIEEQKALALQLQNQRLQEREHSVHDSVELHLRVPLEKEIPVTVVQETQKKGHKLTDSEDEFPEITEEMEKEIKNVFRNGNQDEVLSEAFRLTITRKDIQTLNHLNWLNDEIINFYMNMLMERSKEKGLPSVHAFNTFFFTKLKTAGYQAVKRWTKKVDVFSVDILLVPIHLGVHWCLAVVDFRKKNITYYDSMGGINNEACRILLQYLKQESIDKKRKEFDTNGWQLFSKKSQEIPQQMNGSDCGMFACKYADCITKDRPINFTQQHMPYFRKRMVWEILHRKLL
T7 sequence (P08183 whole entry): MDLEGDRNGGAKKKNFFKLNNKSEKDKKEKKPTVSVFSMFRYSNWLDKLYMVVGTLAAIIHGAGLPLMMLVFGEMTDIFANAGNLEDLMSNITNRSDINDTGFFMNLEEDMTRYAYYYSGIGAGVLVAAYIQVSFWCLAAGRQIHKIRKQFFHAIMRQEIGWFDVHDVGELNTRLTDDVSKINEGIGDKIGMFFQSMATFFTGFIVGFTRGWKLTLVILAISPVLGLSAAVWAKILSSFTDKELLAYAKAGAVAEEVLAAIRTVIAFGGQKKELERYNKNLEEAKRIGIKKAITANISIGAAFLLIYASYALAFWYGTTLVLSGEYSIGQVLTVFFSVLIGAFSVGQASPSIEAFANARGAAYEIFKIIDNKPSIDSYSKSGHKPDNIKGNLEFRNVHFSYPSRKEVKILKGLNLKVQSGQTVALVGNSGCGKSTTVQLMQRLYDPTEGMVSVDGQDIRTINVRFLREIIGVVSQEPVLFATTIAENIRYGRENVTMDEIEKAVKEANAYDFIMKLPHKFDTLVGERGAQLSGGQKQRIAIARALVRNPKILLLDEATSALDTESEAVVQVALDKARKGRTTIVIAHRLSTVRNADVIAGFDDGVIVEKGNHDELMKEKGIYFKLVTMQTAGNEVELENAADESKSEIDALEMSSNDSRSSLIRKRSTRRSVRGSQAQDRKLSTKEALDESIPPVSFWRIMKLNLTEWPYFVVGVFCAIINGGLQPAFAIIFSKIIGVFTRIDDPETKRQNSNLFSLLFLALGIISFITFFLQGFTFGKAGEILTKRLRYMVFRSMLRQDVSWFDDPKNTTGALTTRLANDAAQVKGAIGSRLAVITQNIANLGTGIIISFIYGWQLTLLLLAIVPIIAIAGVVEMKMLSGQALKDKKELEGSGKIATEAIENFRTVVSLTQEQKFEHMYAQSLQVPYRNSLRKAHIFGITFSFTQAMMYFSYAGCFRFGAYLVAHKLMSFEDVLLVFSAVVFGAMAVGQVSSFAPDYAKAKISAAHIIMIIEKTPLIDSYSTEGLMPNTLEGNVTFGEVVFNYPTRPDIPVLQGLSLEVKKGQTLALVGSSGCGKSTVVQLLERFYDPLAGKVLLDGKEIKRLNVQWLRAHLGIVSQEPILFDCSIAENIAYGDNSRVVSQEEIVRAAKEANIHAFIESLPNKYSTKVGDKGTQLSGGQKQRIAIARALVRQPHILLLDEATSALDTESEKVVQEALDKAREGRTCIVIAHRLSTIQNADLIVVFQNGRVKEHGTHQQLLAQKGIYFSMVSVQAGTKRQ
G protein-coupled receptor kinase 5, sequence (P34947 whole entry): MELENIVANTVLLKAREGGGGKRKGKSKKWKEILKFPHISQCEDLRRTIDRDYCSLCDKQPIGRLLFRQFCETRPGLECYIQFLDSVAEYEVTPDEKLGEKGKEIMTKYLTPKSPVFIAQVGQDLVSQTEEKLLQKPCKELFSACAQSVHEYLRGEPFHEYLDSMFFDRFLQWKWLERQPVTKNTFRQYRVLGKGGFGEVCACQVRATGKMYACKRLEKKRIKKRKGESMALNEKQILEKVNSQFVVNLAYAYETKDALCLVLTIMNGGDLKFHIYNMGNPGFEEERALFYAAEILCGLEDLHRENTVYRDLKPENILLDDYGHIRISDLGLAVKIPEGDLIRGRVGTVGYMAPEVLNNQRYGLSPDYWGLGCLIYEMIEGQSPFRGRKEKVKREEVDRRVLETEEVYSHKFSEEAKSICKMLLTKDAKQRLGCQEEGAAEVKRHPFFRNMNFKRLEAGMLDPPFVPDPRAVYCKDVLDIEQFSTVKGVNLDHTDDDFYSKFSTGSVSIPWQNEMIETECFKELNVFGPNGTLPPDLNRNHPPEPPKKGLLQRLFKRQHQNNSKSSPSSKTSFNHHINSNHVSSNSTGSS
Melanocortin receptor 4, sequence (P32245 whole entry, the tested form may be a part): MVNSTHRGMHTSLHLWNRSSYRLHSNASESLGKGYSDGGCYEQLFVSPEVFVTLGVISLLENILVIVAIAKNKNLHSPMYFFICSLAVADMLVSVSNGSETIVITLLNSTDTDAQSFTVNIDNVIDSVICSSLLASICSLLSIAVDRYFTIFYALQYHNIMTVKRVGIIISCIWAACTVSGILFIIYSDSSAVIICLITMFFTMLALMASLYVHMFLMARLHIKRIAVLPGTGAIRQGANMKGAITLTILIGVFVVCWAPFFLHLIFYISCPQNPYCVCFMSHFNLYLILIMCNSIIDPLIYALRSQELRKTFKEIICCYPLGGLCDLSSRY
26S proteasome non-ATPase regulatory subunit 14, sequence (O00487 whole entry): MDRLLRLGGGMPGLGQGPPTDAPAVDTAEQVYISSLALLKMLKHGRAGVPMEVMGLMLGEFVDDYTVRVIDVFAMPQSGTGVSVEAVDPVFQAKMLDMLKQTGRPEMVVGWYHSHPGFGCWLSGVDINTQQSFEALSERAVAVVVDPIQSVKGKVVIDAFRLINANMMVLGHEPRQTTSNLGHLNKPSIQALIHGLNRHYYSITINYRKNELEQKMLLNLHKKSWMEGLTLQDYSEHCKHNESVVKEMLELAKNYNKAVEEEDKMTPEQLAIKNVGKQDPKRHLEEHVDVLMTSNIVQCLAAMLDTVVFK
Genome polyprotein, sequence (P29990 2492-3391 limits assumed): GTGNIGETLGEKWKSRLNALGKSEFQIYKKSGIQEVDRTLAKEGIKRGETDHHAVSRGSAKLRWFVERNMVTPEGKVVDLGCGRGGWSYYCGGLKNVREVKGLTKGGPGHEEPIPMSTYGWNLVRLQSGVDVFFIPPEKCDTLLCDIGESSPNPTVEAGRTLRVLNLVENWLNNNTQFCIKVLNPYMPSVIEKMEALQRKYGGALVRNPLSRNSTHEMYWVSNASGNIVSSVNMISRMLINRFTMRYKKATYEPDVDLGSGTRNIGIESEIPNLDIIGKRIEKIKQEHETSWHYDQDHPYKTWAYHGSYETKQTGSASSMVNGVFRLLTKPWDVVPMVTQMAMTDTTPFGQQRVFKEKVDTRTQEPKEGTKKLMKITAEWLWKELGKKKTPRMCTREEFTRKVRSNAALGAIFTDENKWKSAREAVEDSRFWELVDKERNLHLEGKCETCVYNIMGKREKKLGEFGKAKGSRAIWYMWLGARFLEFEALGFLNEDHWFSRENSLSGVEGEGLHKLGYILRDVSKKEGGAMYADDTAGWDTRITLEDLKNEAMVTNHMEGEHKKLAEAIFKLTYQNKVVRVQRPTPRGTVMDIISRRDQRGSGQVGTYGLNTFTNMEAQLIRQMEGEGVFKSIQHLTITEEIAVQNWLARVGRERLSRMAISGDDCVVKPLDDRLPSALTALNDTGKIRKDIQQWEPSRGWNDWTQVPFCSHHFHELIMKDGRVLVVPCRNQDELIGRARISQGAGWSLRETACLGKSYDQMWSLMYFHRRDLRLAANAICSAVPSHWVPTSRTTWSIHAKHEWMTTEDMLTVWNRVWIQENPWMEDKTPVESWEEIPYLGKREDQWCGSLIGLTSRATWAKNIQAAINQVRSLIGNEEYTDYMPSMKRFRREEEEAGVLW
Aurora kinase A, sequence (O14965 whole entry): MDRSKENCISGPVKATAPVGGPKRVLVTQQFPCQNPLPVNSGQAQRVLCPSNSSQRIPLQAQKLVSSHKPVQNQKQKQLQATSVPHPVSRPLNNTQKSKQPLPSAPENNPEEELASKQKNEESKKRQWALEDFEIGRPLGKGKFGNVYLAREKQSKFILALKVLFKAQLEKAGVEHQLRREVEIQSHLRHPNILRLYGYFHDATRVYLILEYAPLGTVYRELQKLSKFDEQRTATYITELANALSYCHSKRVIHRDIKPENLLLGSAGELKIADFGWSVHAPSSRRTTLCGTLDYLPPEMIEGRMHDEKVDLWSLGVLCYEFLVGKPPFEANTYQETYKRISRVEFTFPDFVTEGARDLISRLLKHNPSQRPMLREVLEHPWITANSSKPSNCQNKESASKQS
Phospholipase A2, sequence (P04054 whole entry): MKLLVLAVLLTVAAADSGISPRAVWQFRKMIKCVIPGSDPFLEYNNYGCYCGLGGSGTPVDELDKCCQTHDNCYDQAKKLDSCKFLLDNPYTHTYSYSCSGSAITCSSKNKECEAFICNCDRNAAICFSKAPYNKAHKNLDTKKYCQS
Mitochondrial peptide methionine sulfoxide reductase, sequence (P54149 whole entry): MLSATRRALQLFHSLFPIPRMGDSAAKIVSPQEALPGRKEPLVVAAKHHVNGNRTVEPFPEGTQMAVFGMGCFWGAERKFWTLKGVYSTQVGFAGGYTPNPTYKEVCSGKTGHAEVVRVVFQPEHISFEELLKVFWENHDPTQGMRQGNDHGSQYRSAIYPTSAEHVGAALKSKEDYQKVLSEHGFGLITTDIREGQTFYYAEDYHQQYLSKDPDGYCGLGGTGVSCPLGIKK

## O=c1[nH]c(=S)[nH]c2c1C(c1ccc(Br)cc1)c1c([nH]c(=S)[nH]c1=O)O2
[1]
  IC50: 14.5 µM (active)
[2]
  IC50: 0.0169 µM (active)
Cysteine protease ATG4B
  IC50: 2.96 µM (active)
Phospholipase A2
  IC50: 29.2 µM (inactive)
[3]
  IC50: > 66.6 µM (inactive)
[4]
  EC50: 4.53 µM (active)
Prothrombin
  IC50: 20.8 µM (active)
Large T antigen
  IC50: 21.4 µM (active)
[5]
  IC50: 10.3 µM (active)
[6]
  EC50: 4.86 µM (inconclusive)
ORF 73
  AC50: 281 µM (active)
Genome polyprotein
  IC50: 73.7 µM (active)

## COC(=O)c1sc(N)c(C(=O)OC)c1COC(=O)CNS(=O)(=O)c1ccc(C)c(C)c1
[7]
  IC50: > 64.6 µM (inactive)
Melanocortin receptor 4
  IC50: > 64.6 µM (inactive)

## Nc1ccc2c(c1)-c1ccc(F)cc1C2=O
[8]
  IC50: 19.4 µM (active)
[9]
  IC50: 76.9 µM (inactive)

## CCOC(=O)C(NC(=O)CC(C)C)(Nc1sc2c(c1C(N)=O)CCCC2)C(F)(F)F (configuration not stated)
[10]
  IC50: > 99 µM (inactive)

## CC(C)CC(NC(=O)c1cccc(-n2nc(C(C)(C)C)cc2NC(=O)Nc2cccc3ccccc23)c1)C(N)=O (configuration not stated)
[11]
  Ki: 5.01 µM (active)

## Cc1cccc(NC(=O)Nc2ccc(-c3csc4c(-c5ccc(NC(=O)CCCN(C)C)cc5)cnc(N)c34)cc2)c1
Aurora kinase A
  Ki: 0.0501 µM (active)
[12]
  Ki: 0.398 µM (active)

## C/C(=N\Nc1ccc(C(F)(F)F)cc1[N+](=O)[O-])C1CC1
[13]
  IC50: 155 µM (inactive)

## COc1cc2c(Nc3ccc(Br)cc3F)ncnc2cc1OCC1CCN(C)CC1 [VANDETANIB]
[14]
  Ki: > 2 µM (inactive)
[15]
  Ki: > 3.98 µM (inactive)

## O=C(c1cccc(Cl)c1)N1CCN(c2cc(-c3ccccc3)nc3cc(-c4cccc(Cl)c4)nn23)CC1
[16]
  EC50: 3.16 µM (active)
[17]
  EC50: 2.66 µM (active)

## C#CCN(C[C@@H]1[C@@H](OC(=O)NCc2ccc(OC)c(OC)c2)[C@@H](OC(=O)NCc2ccc(OC)c(OC)c2)Cn2c(=O)ccc(=O)n21)S(=O)(=O)c1ccc(C)cc1
[18]
  IC50: 32.1 µM (inactive)
Paired box protein Pax-8
  AC50: 3.91 µM (active)

— ChEMBL document CHEMBL1201862, “PubChem BioAssay data set” (2004)
